# Test results from patent US6933108B2 (priority 1999, dated 2005).
# “Also recorded” adds a separate entry of the source.
# Experiments:
# FR-α = FR-α (Homo sapiens, UniProt P15328); conditions: cited from earlier work
# [1] = system: Filoviruses, including the Marburg and Ebola viruses; conditions: cited from earlier work
# EBO-Z pseudotype virus = assay type: cell-based, Ebola-Zaire virus
# MBG pseudotype virus = assay type: cell-based, Marburg virus
# Ampho luciferase virus = assay type: cell-based, amphotropic murine leukemia virus
# FR-α, sequence (P15328 25-234): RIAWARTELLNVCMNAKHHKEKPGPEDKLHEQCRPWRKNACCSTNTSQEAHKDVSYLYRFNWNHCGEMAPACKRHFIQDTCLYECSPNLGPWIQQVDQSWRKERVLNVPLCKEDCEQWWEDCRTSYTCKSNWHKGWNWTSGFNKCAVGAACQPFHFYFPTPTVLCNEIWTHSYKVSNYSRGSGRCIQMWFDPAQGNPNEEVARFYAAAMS
smiles,measurement,setting,value
CN1c2c(nc(N)[nH]c2=O)NCC1CNc1ccc(C(=O)N[C@@H](CCC(=O)O)C(=O)O)cc1 (stereo partly drawn) [5-methyltetrahydrofolic acid],binding affinity to FR-α,FR-α,high affinity
NC(=O)c1ncn([C@@H]2O[C@H](CO)[C@@H](O)[C@H]2O)n1 [ribavirin],in vitro effect against filoviruses,[1],no in vitro effect
Nc1nc2ncc(CNc3ccc(C(=O)N[C@@H](CCC(=O)O)C(=O)O)cc3)nc2c(=O)[nH]1 [folic acid],entry by EBO-Z virus,EBO-Z pseudotype virus,inhibited significantly; also recorded: specifically inhibited
same,entry by MBG luciferase virus,MBG pseudotype virus,specifically inhibited
same,reduction of MBG virus entry,MBG pseudotype virus,~80%
same,entry by Ampho luciferase pseudotype,Ampho luciferase virus,very slight alteration; also recorded: did not significantly decrease; also recorded: not Ampho
